Measured values as given in article PMC9431032, “Boosting Cosmeceutical Peptides: Coupling Imidazolium-Based Ionic Liquids to Pentapeptide-4 Originates New Leads with Antimicrobial and Collagenesis-Inducing Activities” (Microbiology Spectrum, 2022).
Several values for one entry are separate records, joined by “and”; a condition that tells them apart may be missing. Identical values can stand only once. Like-named read-outs stand apart in the source and are kept apart here. Peptide text beside a SMILES is read from it. * marks the point of attachment. X1 = CCCCCCCCCCCCCCCCn1cc[n+](Cc2cn(CC(=O)*)nn2)c1

Legend:
[1] = system: HaCaT cells (human immortalized keratinocytes); test: cells; assay type: cell-based; settings: 24 h
Method: (§1) The cytotoxicity of KTTK(C16Im)S and C16Im-KTTKS conjugates was assessed on human foreskin fibroblasts (HFF-1) and human immortalized keratinocytes (HaCaT). […] In turn, the parent IL [C16 M1Im][Br] and its […] equimolar mixture with PP4, KTTKS:[C16 M1Im][Br]
(§2) (iv) Toxicity to human cells. HaCat and HFF-1 were seeded at 4 × 10^4cell/mL in 96-well plate using in Dulbecco’s Modified Eagle Medium (DMEM; CLS) supplemented with 2% FBS (Biowest) and 1% of antibiotic/antimycotic solution (100 units/mL of penicillin, 10 mg/mL of streptomycin, and 0.25 mg/mL of amphotericin B, Sigma-Aldrich). The plate was incubated at 37°C in a 5% CO2 atmosphere, and the cells allowed to grow until confluence was reached. Then, solutions of the test compounds in DMEM supplemented with 2% FBS, in a concentration range between 6.3 and 100 μM, were added to the wells. After 24 h of incubation at 37°C in a 5% CO2 atmosphere, the cell viability was assessed through the resazurin reduction assay. Briefly, the medium was removed and then 20 μL of the alamarBlue Cell Viability Reagent (Resazurin sodium salt, Sigma-Aldrich) at 0.15 mg/mL in 100 μL of Hank’s Balanced Salt Solution (HBSS; Sigma-Aldrich) were added to each well; the plate was next incubated for 2 h at 37°C in a 5% CO2 atmosphere, after which fluorescence was read at 560/590 nm on a Flex Station 3 multi-mode microplate reader (Molecular Devices) ([53]). The IC50 values were thus determined using the GraphPad Prism 9.0 software, by applying the equation log(inhibitor) versus response with variable slope (four parameters).

[2] = system: P. aeruginosa (PA004) MDR clinical isolate; settings: n = 3
S. aureus (ATCC 29213) = settings: for MBC: ATCC 29213, 24 h; for MIC: 10^5 CFU/mL, 18 h at 37°C, three independent experiments in triplicates
Method: The antibacterial activity of C16Im-KTTKS and KTTK(C16Im)S was also assessed in simulated wound fluid (SWF) ([35]) against S. aureus (ATCC 29213), to check if it was preserved in this medium.
(ii) Antibacterial activity in simulated wound fluid. […] In parallel, SWF was prepared to a final composition of 50% fetal bovine serum (FBS; Sigma-Aldrich) and 50% peptone water (0.9% NaCl in 0.1% aqueous peptone; Sigma-Aldrich) ([35]). […] MIC values were determined in triplicates and are a result of three independent experiments.

[3] = system: S. epidermidis ATCC 14990; settings: broth microdilution in cation-adjusted MHB2, CLSI, n = 3
Method: (§3) The antimicrobial activity of the IL-KTTKS conjugates was assessed in vitro against reference bacterial strains (American Type Culture Collection, ATCC). The minimal inhibitory concentration (MIC) was determined according to the Clinical and Laboratory Standards Institute (CLSI) guidelines ([28]) against Gram-positive (S. aureus, Enterococcus faecalis) and Gram-negative (Escherichia coli, Pseudomonas aeruginosa) bacteria.
(§4) (i) Antibacterial activity in standard conditions. The test conjugates and reference compounds were evaluated for their activity against three reference strains of Gram-negative bacteria, namely, E. coli (ATCC 25922), Pseudomonas aeruginosa (ATCC 27853), and Klebsiella pneumoniae (ATCC 13883), and the four following reference strains of Gram-positive bacteria, Staphylococcus aureus (ATCC 29213), S. Epidermidis (ATCC 14990), E. faecalis (ATCC 29212), and Streptococcus pyogenes (ATCC 19615). […] MBC values were also determined as previously reported ([52]).

[4] = system: S. aureus (SA007) MDR clinical isolate; settings: for MIC: n = 3
[5] = system: K. pneumoniae (KP010) MDR clinical isolate; settings: n = 3
C. albicans ATCC 90028 = test: microbe, parasite or virus in culture; settings: C. albicans ATCC 90028, RPMI 1640 with 2% glucose, EUCAST, n = 2
Method: (§5) The MIC values were determined according to the European Committee on Antimicrobial Susceptibility Testing (EUCAST) protocol ([36]) and are shown on Table 4.
(§6) (iii) Antifungal activity.

C. glabrata ATCC 90030 = test: microbe, parasite or virus in culture; settings: C. glabrata ATCC 90030, RPMI 1640 with 2% glucose, EUCAST, n = 2
Method: as §5, §6

[6] = system: C. parapsilosis ATCC 22019; test: microbe, parasite or virus in culture; settings: C. parapsilosis ATCC 22019, RPMI 1640 with 2% glucose, EUCAST, n = 2
Method: as §5, §6

P. aeruginosa ATCC 27853 = test: microbe, parasite or virus in culture; settings: P. aeruginosa ATCC 27853; broth microdilution in cation-adjusted MHB2, CLSI; n = 3
Method: as §3, §4

K. pneumonia ATCC 138830 = test: microbe, parasite or virus in culture; settings: K. pneumonia ATCC 138830; broth microdilution in cation-adjusted MHB2, CLSI; n = 3
Method: as §3, §4

S. aureus ATCC 29213 = test: microbe, parasite or virus in culture; settings: S. aureus ATCC 29213; broth microdilution in cation-adjusted MHB2, CLSI; n = 3
Method: as §3, §4

E. coli ATCC 25922 = test: microbe, parasite or virus in culture; settings: E. coli ATCC 25922; broth microdilution in cation-adjusted MHB2, CLSI; n = 3
Method: as §3, §4

E. faecalis ATCC 29212 = test: microbe, parasite or virus in culture; settings: E. faecalis ATCC 29212; broth microdilution in cation-adjusted MHB2, CLSI; n = 3
Method: as §3, §4

[7] = system: human dermal fibroblasts (HDF); test: Collagen production, Sircol kit assay; assay type: cell-based; settings: 5 μM, 48 h, three independent experiments in triplicates, values only in Fig. 3
Method: The point of conjugating antimicrobial ILs to a collagenesis-inducing peptide was to afford a simple construct able to exert a dual antimicrobial and skin rebuilding action. Therefore, the two best IL-KTTKS conjugates were further tested for their ability to promote collagen production by human dermal fibroblasts (HDF) in vitro. This was assessed using the Sircol kit assay, whereby the amount of newly formed collagen in the ECM that is deposited in the microwell-plated cell cultures is solubilized in an acidic medium and next quantified through a collagen standard curve according to the Sircol kit assay procedure ([38]). […]
(v) Collagen production in human dermal fibroblasts. The amount of collagen produced by HDF was determined using the SIRCOL Kit Assay (Biocolor) according to the manufacturers’ instructions ([38]). […] Medium was then removed, and quantitation of the newly formed collagen proceeded as follows: collagen was solubilized in cold 0.5 M aqueous acetic acid (Fisher Chemical) and concentrated overnight with deposition of a transparent pellet; after centrifugation, the supernatant was discarded and the pellet was labeled with the SIRCOL dye reagent; after removing the unbound dye with the acid-salt wash reagent, the collagen-bound dye was dissolved with the alkali reagent and absorbance was measured at 555 nm on Flex Station 3 multimode microplate reader. […]

[8] = system: HFF-1 cells (human foreskin fibroblasts); assay type: cell-based; settings: 24 h
Method: as §1, §2

[9] = in SWF (50% FBS, 50% peptone water)

Q: For CCCCCCCCCCCCCCCCn1cc[n+](Cc2cn(CCCC[C@H](NC(=O)[C@@H](NC(=O)[C@@H](NC(=O)[C@@H](N)CCCCN)[C@@H](C)O)[C@@H](C)O)C(=O)N[C@@H](CO)C(N)=O)nn2)c1 [KTTK(C16Im)S], which IC50 [1] is on record?
A: 23.1 ± 1.1 µM

Q: And the MIC [2]?
A: 21.7 μM and 20.0 μg/mL

Q: And the MBC (S. aureus (ATCC 29213))?
A: 32 [64 to 128] μg/mL

Q: And the MIC (S. aureus (ATCC 29213); in MHB)?
A: 32 µg/mL

Q: And the MIC (S. aureus (ATCC 29213); [9])?
A: 64 to 128 µg/mL

Q: What about the MIC [3] of the same compound?
A: 5.4 μM and 5.0 μg/mL

Q: What about the MIC [4] of the same compound?
A: 21.7 μM and 20.0 μg/mL

Q: And the MIC [5]?
A: 21.7 μM and 20.0 μg/mL

Q: And the MIC (C. albicans ATCC 90028; listed as KTTK(C16m)S)?
A: 5.4 μM and 5.0 μg/mL

Q: And the MIC (C. glabrata ATCC 90030; listed as KTTK(C16m)S)?
A: 5.4 μM and 5.0 μg/mL

Q: And the MIC ([6]; listed as KTTK(C16m)S)?
A: 2.7 μM and 2.5 μg/mL

Q: And the MIC (P. aeruginosa ATCC 27853)?
A: 32.5 μM and 29.9 μg/mL

Q: What about the MIC (K. pneumonia ATCC 138830) of the same compound?
A: 53.8 μM and 49.5 μg/mL

Q: What about the MIC (S. aureus ATCC 29213) of the same compound?
A: 14.0 μM and 12.9 μg/mL

Q: And the MIC (E. coli ATCC 25922)?
A: 7.0 μM and 6.45 μg/mL

Q: What about the MIC (E. faecalis ATCC 29212) of the same compound?
A: 32.5 μM and 29.9 μg/mL

Q: What about the “Collagen synthesis by HDF compared to the negative control” value [7] of the same compound?
A: produce more collagen

Q: And the IC50 [8]?
A: 12.7 ± 1.06 µM

Q: What does the source list for CCCCCCCCCCCCCCCCn1cc[n+](Cc2cn(CC(=O)N[C@@H](CCCCN)C(=O)N[C@H](C(=O)N[C@H](C(=O)N[C@@H](CCCCN)C(=O)N[C@@H](CO)C(N)=O)[C@@H](C)O)[C@@H](C)O)nn2)c1 [Peptide C16Im-KTTKS] (X1-KTTKS-NH2)?
A: IC50 [1]: 36.6 ± 1.09 µM; MIC [2]: 18.5 µg/mL; MBC (S. aureus (ATCC 29213)): 32 to 64 µg/mL; MIC (S. aureus (ATCC 29213); in MHB): 16 to 32 µg/mL; MIC (S. aureus (ATCC 29213); [9]): 16 to 32 µg/mL; MIC [3]: 9.5 μM and 9.3 μg/mL; MIC relative to that of ciprofloxacin [4]: ~10 fold; MIC [4]: 18.5 µg/mL; MIC [5]: 37.9 μM and 37.0 μg/mL; MIC (C. albicans ATCC 90028): 4.7 μM and 4.6 μg/mL; MIC (C. glabrata ATCC 90030): 4.7 μM and 4.6 μg/mL; MIC [6]: 2.4 μM and 2.3 μg/mL; MIC (P. aeruginosa ATCC 27853): 28.7 μM and 28.0 μg/mL; MIC (K. pneumonia ATCC 138830): 27.4 μM and 26.8 μg/mL; MIC (S. aureus ATCC 29213): 14.3 μM and 14.0 μg/mL; MIC (E. coli ATCC 25922): 14.3 μM and 14.0 μg/mL; MIC (E. faecalis ATCC 29212): 28.7 μM and 28.0 μg/mL; Collagen synthesis by HDF compared to the negative control [7]: produce more collagen; IC50 [8]: 22.5 ± 1.08 µM
